Experiment: Relative thermodynamic stability of the crystalline forms
Type: physicochemical
Details: compared to the other identified Forms A, B, and C; temperature range of RT to 50° C.

Structure (SMILES): CN1C(=O)[C@@H](NC(=O)c2n[nH]c(Cc3ccccc3)n2)COc2ccc(C#CC(C)(C)O)cc21 [Form D, (S)-5-benzyl-N-(7-(3-hydroxy-3-methylbut-1-yn-1-yl)-5-methyl-4-oxo-2,3,4,5-tetrahydrobenzo[b][1,4]oxazepin-3-yl)-1H-1,2,4-triazole-3-carboxamide]
- thermodynamic stability of the crystalline form: most thermodynamically stable crystalline form

From patent US20250019372A1, “CRYSTALLINE FORMS OF A RIPK1 INHIBITOR” (RIGEL PHARMACEUTICALS, INC., priority 2021, published 2025)
